± gives the expanded uncertainty stated by the source.
Settings: 298.15 K; 101.33 kPa; Liquid; Vibrating tube method

mass density [kg/m3] | Compound
786.4 ± 0.2 | CCO [ethanol]
797.6 ± 0.2 | CCCO [propan-1-ol]
1208 ± 2.8 | CCCCn1cc[n+](C)c1.COS(=O)(=O)[O-] [1-butyl-3-methylimidazolium methyl sulfate]

The remaining lines, values behind:

Compound | mass density [kg/m3]
CO [methanol] | 786.3 ± 0.2
C[N+](=O)[O-] [nitromethane] | 1130.9 ± 0.4
